Measured values reported in patent publication US4317768A, “Dihydropyridine derivatives as stabilizers for vinyl chloride polymers” (priority 1977, dated 1982).
“Also recorded” adds a separate entry of the source.

Columns and labels:
[1] = Comparison with stabilizer G1, rigid co-polymer, 0.5 part, 185° C.
From the text: (b) Comparison with stabilizer G1
Stabilizer G1 is a mixture of 1,4-butanediol-β-aminocrotonate and of β-aminocrotonate of alcohols containing from 16 to 18 carbon atoms.

[2] = Colour of the resin after each passage in a blower-extruder; details: blower-extruder
Experimental: (2) Examination of the colour of the resin after each passage (3 in all) in a blower-extruder, the mould being a 250 ml cylindrical flask.
Four resins where tested, the first containing 0.2% of 2-phenyl-indole and the others 0.2%, 0.03% and 0.015% of compound 1 respectively.

[3] = Static thermostability (GARDNER method), rigid PVC sheets, 185° C., equimolecular quantities; details: 1.55×10^-3 mol
Procedure, shortened: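 Stabilizer at 1.55×10^-3 mol (equimolar with 2-phenyl-indole) mixed with PVC and other usual ingredients, calendered at 160° C. into rigid sheets. Sheets oven-aged at 185° C., sampled every 6 min to 24 min, then every 3 min to 42 min or carbonization. Coloration scored on the GARDNER scale.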

[4] = Comparison with stabilizer G1, 0.3 part, 185° C.
[5] = Comparison with 1,4-butanediol-β-aminocrotonate and methyl-β-aminocrotonate, rigid co-polymer, 185° C.; details: 0.5 part
Experimental: (a) Comparison with 1,4-butanediol-β-aminocrotonate and with methyl-β-aminocrotonate.
The following rigid co-polymer was prepared:
The sheets were heated in a ventilated oven at 185° C. and the following results were obtained: […]

**Q.** Which “coloration, GARDNER scale” value ([1]; 0 min) does the source give for `C=CCOC(=O)C1=C(C)NC(C)=C(C(=O)OCC=C)C1` [Compound 1, 2,6-Dimethyl-3,5-dicarboallyloxy-1,4-dihydropyridine] here?
**A.** The value was 1.

**Q.** And the “coloration, GARDNER scale” value ([1]; 2 min)?
**A.** The value was 1.

**Q.** And the “coloration, GARDNER scale” value ([1]; 4 min)?
**A.** The value was 2.

**Q.** What about the “coloration, GARDNER scale” value ([1]; 6 min) of the same molecule?
**A.** Its value is 6.

**Q.** What about the “coloration, GARDNER scale” value ([1]; 8 min) of the same molecule?
**A.** Its value is 10.

**Q.** What about the “coloration, GARDNER scale” value ([1]; 10 min) of the same molecule?
**A.** Its value is 13.

**Q.** What about the “coloration, GARDNER scale” value ([1]; 12 min) of the same molecule?
**A.** Its value is 17.

**Q.** And the “stability of colour compared to 2-phenyl-indole, in words” value [2]?
**A.** Its value is “markedly superior; also recorded: at all times superior to 2-phenyl-indole used at a concentration of 0.2%”.

**Q.** And the “stability of colour compared to 2-phenyl-indole, in words” value ([2]; listed as compound 1)?
**A.** The value was “excellent behaviour”.

**Q.** For `CC1=C(C(=O)OCc2ccccc2)CC(C(=O)OCc2ccccc2)=C(C)N1` [Compound 21, 2,6-Dimethyl-3,5-dicarbobenzyloxy-1,4-dihydropyridine], which “coloration, GARDNER scale” value ([3]; 0 min) is on record?
**A.** Its value is 1.

**Q.** What about the “coloration, GARDNER scale” value ([3]; 6 min) of the same molecule?
**A.** The value was 1.

**Q.** What about the “coloration, GARDNER scale” value ([3]; 12 min) of the same molecule?
**A.** The value was 1.

**Q.** What about the “coloration, GARDNER scale” value ([3]; 18 min) of the same molecule?
**A.** The value was 4.

**Q.** What about the “coloration, GARDNER scale” value ([3]; 24 min) of the same molecule?
**A.** The value was 6.

**Q.** What about the “coloration, GARDNER scale” value ([3]; 27 min) of the same molecule?
**A.** The value was 8.

**Q.** And the “coloration, GARDNER scale” value ([3]; 30 min)?
**A.** The value was 11.

**Q.** And the “coloration, GARDNER scale” value ([3]; 33 min)?
**A.** The value was 15.

**Q.** What about the “coloration, GARDNER scale” value ([3]; 36 min) of the same molecule?
**A.** Its value is “Burnt”.

**Q.** What about the “coloration, GARDNER scale” value ([4]; 0 min) of the same molecule?
**A.** The value was 1.

**Q.** And the “coloration, GARDNER scale” value ([4]; 2 min)?
**A.** The value was 1.

**Q.** And the “coloration, GARDNER scale” value ([4]; 4 min)?
**A.** The value was 2.

**Q.** What about the “coloration, GARDNER scale” value ([4]; 6 min) of the same molecule?
**A.** Its value is 4.

**Q.** What about the “coloration, GARDNER scale” value ([4]; 8 min) of the same molecule?
**A.** Its value is 7.

**Q.** And the “coloration, GARDNER scale” value ([4]; 10 min)?
**A.** The value was 12.

**Q.** And the “coloration, GARDNER scale” value ([4]; 12 min)?
**A.** The value was 16.

**Q.** What about the “coloration, GARDNER scale” value ([4]; 14 min) of the same molecule?
**A.** Its value is 18.

**Q.** And the “coloration, GARDNER scale” value ([5]; 0 min)?
**A.** The value was 1.

**Q.** And the “coloration, GARDNER scale” value ([5]; 2 min)?
**A.** The value was 1.

**Q.** And the “coloration, GARDNER scale” value ([5]; 4 min)?
**A.** Its value is 4.

**Q.** What about the “coloration, GARDNER scale” value ([5]; 6 min) of the same molecule?
**A.** The value was 6.

**Q.** What about the “coloration, GARDNER scale” value ([5]; 8 min) of the same molecule?
**A.** The value was 11.

**Q.** What about the “coloration, GARDNER scale” value ([5]; 10 min) of the same molecule?
**A.** The value was 13.

**Q.** What about the “coloration, GARDNER scale” value ([5]; 12 min) of the same molecule?
**A.** The value was 17.
